Laboratory results published in PMC11167047 (Cell Death Discovery, 2024).

Columns and labels:
Test in all cases: kinome screen (33PanQinase)
Assay type in all cases: biochemical
ABL1 = biological target: T1, ABL1 (Homo sapiens, UniProt P00519)
T1 construct: purchased Reaction Biology Europe GmbH (formerly ProQinase)
Method: (§1) The Kinome Screening was performed by Reaction Biology Europe GmbH (http://reactionbiology.com; Freiburg i. Br., Germany).

ABL2 = biological target: T2, ABL2 (Homo sapiens, UniProt P42684)
T2 construct: purchased Reaction Biology Europe GmbH (formerly ProQinase)
Method: as §1

CDC7/DBF4 = biological target: T3, CDC7/DBF4 (Homo sapiens, UniProt O00311)
T3 construct: purchased Reaction Biology Europe GmbH (formerly ProQinase)
Method: as §1

CDK9/CycT1 = biological target: T4, CDK9/CycT1 (Homo sapiens, UniProt P50750)
T4 construct: purchased Reaction Biology Europe GmbH (formerly ProQinase)
Method: as §1

CLK3 = biological target: T5, CLK3 (Homo sapiens, UniProt P49761)
T5 construct: purchased Reaction Biology Europe GmbH (formerly ProQinase)
Method: as §1

DMPK = biological target: T6, DMPK (Homo sapiens, UniProt Q09013)
T6 construct: purchased Reaction Biology Europe GmbH (formerly ProQinase)
T6 sequence (Q09013 1-629): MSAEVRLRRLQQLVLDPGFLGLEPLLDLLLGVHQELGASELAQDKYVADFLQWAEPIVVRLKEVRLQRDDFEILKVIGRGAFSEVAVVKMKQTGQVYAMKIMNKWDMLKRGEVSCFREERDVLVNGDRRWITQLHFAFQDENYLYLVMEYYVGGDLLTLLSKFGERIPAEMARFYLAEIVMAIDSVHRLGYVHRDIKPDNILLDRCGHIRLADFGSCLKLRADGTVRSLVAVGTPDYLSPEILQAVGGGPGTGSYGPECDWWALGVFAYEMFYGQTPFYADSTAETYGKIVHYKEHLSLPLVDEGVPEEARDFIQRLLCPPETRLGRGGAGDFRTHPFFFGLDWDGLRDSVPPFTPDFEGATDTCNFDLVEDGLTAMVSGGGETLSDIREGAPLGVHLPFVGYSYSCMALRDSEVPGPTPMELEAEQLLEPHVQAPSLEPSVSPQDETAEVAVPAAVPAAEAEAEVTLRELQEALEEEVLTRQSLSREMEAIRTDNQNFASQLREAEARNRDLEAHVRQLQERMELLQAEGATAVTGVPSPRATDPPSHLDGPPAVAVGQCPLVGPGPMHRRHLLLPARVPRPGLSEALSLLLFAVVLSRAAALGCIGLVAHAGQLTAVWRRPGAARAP
Method: as §1

LIMK1 = biological target: T7, LIMK1 (Homo sapiens, UniProt P53667)
T7 construct: purchased Reaction Biology Europe GmbH (formerly ProQinase)
Method: as §1

LYN = biological target: T8, LYN (Homo sapiens, UniProt P07948)
T8 construct: purchased Reaction Biology Europe GmbH (formerly ProQinase)
Method: as §1

MAP4K2 = biological target: T9, MAP4K2 (Homo sapiens, UniProt Q12851)
T9 construct: purchased Reaction Biology Europe GmbH (formerly ProQinase)
T9 sequence (Q12851 1-820): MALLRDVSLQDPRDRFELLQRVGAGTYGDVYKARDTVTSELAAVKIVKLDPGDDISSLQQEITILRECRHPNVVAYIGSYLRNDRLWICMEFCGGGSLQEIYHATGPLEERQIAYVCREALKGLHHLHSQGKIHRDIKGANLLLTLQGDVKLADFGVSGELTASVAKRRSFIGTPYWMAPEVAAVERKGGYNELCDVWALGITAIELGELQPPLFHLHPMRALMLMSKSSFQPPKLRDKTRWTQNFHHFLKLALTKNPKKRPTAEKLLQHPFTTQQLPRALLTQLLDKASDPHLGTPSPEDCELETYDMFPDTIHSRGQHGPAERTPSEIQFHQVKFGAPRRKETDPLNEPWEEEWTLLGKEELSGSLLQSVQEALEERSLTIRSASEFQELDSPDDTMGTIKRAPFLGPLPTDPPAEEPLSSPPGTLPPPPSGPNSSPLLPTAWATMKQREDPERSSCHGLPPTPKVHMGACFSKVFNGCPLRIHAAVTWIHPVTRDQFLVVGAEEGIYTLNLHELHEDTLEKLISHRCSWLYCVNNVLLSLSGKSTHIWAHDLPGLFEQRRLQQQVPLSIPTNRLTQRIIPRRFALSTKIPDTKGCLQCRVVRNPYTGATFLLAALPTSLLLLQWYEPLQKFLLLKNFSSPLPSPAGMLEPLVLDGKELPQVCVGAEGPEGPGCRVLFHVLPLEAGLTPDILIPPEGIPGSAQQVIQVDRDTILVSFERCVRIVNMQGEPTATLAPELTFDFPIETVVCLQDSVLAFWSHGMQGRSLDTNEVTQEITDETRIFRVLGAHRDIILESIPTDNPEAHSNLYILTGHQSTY
Method: as §1

MKNK1 = biological target: T10, MKNK1 (Homo sapiens, UniProt Q9BUB5)
T10 construct: purchased Reaction Biology Europe GmbH (formerly ProQinase)
Method: as §1

TBK1 = biological target: T11, TBK1 (Homo sapiens, UniProt Q9UHD2)
T11 construct: purchased Reaction Biology Europe GmbH (formerly ProQinase)
T11 sequence (Q9UHD2 1-729): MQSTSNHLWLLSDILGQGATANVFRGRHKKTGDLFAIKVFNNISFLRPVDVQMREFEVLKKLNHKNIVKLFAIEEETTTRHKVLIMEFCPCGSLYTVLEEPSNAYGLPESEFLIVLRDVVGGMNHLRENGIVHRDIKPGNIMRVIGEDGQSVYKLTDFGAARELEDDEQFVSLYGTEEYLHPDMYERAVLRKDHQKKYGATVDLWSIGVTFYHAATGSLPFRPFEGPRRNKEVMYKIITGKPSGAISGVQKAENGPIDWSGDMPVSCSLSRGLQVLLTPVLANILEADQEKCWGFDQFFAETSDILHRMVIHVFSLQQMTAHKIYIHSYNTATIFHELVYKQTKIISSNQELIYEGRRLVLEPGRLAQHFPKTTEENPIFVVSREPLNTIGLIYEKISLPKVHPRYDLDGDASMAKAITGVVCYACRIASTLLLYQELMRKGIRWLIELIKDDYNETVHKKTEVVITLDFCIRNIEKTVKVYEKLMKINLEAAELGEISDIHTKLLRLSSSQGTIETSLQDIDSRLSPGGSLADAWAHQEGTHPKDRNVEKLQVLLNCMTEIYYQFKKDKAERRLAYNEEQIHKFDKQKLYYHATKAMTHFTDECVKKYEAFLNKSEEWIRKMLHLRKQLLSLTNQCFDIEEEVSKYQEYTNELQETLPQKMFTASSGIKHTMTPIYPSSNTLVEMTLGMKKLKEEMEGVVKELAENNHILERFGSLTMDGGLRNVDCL
Method: as §1

T3 sequence (O00311 whole entry): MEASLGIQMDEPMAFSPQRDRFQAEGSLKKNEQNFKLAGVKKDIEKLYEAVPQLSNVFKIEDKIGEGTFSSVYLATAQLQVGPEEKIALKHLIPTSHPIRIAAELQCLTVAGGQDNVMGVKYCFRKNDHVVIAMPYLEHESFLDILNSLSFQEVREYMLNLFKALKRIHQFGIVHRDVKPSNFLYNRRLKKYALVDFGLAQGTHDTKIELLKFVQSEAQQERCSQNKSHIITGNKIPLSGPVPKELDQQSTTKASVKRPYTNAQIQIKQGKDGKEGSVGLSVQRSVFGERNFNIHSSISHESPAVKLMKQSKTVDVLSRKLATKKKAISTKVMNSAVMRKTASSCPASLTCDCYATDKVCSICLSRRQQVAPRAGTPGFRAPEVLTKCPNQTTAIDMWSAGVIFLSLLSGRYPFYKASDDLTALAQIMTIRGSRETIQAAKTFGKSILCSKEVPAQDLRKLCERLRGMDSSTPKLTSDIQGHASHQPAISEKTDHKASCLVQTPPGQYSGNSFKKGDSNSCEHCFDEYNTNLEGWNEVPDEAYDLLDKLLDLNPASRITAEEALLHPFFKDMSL
T3 sequence (Q9UBU7 whole entry partner): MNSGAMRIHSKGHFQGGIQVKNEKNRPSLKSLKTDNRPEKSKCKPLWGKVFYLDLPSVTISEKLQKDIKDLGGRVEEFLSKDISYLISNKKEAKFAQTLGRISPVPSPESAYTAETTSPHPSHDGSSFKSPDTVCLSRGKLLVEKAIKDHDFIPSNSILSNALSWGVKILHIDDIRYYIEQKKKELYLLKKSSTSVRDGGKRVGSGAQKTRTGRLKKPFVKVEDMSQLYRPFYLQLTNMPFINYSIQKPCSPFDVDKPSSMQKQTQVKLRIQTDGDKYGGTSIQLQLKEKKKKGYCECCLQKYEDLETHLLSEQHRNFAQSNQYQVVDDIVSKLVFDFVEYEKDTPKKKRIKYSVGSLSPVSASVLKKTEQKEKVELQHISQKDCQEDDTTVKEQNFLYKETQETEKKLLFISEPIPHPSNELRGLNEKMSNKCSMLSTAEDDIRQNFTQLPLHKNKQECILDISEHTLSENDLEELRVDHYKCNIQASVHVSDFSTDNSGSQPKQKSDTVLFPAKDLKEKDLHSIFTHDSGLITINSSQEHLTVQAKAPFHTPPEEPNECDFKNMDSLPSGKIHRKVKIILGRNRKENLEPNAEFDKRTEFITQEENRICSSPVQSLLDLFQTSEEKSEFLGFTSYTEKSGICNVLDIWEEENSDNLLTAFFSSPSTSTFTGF
T8 sequence (P07948 whole entry): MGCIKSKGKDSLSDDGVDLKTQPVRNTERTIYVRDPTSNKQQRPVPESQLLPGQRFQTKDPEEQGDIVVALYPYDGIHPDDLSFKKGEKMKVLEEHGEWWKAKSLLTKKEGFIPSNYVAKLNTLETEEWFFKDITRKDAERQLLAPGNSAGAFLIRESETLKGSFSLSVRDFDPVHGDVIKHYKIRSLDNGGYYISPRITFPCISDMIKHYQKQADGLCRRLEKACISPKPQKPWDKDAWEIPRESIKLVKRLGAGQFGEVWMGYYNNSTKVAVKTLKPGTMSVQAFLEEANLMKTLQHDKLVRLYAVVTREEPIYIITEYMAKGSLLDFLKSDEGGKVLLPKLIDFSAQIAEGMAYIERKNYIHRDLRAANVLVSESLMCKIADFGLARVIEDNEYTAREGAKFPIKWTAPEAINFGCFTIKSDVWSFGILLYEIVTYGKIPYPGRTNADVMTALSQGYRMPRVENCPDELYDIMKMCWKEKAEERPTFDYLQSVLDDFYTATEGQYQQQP
T2 sequence (P42684 whole entry): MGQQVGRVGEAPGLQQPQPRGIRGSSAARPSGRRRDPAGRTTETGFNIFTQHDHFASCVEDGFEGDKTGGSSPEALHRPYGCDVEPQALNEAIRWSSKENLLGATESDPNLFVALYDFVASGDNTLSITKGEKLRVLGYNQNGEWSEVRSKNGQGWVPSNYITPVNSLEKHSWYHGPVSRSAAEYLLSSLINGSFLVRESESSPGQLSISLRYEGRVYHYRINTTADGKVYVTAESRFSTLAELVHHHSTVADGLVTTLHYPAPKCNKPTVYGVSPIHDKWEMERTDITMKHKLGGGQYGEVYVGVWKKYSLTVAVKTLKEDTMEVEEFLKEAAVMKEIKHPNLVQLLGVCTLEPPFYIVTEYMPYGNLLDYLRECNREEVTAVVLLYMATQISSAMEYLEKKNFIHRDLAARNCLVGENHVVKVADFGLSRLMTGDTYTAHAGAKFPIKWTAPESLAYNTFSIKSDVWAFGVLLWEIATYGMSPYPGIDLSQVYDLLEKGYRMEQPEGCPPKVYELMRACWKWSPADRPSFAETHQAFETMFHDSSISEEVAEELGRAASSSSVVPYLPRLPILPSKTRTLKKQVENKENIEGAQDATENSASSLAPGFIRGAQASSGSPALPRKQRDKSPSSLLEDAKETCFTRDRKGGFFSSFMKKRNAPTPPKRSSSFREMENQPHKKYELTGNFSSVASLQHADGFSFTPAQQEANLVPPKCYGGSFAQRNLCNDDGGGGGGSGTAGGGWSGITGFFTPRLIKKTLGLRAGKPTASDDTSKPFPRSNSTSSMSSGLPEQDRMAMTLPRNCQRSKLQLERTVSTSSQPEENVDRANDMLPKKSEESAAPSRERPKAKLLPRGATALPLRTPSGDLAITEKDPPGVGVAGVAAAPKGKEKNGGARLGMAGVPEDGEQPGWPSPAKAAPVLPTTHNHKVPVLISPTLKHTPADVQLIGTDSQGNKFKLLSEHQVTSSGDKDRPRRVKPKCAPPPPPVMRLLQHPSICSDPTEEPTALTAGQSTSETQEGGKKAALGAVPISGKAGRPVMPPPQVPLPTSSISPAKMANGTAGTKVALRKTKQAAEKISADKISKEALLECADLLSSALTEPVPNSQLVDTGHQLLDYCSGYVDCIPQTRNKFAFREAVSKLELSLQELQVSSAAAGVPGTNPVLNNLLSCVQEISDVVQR
T4 sequence (P50750 whole entry): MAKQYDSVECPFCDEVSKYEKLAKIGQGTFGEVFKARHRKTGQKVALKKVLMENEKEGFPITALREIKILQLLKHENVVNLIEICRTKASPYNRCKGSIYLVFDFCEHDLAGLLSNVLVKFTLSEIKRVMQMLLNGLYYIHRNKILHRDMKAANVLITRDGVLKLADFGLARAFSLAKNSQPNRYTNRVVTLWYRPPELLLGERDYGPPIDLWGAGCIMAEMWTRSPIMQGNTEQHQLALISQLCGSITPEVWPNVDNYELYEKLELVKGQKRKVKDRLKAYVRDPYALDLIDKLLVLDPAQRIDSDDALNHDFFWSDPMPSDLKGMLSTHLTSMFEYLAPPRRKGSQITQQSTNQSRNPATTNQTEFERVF
T4 sequence (O60563 whole entry partner): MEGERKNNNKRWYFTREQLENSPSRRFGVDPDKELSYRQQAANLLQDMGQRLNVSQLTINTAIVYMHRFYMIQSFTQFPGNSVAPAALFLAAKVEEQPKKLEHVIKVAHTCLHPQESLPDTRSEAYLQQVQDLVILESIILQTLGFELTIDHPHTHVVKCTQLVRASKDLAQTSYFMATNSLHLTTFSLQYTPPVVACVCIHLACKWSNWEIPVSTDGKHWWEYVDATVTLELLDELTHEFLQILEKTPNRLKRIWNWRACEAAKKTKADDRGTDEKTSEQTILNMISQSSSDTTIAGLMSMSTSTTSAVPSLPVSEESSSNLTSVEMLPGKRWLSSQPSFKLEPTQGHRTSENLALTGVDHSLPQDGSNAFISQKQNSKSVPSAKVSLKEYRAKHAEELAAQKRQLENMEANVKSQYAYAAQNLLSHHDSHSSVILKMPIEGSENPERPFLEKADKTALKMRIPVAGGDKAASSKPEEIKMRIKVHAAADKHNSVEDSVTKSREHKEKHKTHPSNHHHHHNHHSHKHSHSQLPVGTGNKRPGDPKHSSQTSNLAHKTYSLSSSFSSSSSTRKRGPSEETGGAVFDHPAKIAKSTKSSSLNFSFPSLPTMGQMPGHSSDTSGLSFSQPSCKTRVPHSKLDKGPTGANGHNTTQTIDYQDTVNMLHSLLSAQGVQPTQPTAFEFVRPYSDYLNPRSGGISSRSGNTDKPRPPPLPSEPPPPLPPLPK
T7 sequence (P53667 whole entry): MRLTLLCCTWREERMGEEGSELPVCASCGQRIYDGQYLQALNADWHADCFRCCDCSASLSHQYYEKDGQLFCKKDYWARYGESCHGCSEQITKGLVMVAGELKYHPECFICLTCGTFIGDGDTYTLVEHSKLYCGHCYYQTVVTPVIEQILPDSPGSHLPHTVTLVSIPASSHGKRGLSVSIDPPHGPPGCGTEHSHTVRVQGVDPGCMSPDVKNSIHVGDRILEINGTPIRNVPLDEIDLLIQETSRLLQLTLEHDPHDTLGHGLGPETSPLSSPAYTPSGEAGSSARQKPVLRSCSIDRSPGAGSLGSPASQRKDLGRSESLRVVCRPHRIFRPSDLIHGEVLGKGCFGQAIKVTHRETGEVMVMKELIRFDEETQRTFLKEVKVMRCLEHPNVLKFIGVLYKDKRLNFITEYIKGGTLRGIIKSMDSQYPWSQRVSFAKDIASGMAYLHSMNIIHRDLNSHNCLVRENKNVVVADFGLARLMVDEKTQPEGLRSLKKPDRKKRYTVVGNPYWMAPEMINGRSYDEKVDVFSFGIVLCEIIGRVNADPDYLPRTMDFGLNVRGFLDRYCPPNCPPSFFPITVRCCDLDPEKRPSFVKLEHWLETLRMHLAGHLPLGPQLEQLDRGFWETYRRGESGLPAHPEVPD

Row | SMILES | residual kinase activity (ABL1; 0.3 µM) | residual kinase activity (ABL2; 0.3 µM) | residual kinase activity (CDC7/DBF4; 0.3 µM) | residual kinase activity (CDK9/CycT1; 0.3 µM) | residual kinase activity (CLK3; 0.3 µM) | residual kinase activity (DMPK; 0.3 µM) | residual kinase activity (LIMK1; 0.3 µM) | residual kinase activity (LYN; 0.3 µM) | residual kinase activity (MAP4K2; 0.3 µM) | residual kinase activity (MKNK1; 0.3 µM) | residual kinase activity (TBK1; 0.3 µM) | also measured
1 | COc1ccnc2[nH]cc(-c3cc(N)nc(N)c3)c12 [meriolin 16] | 99 % of control | 91 % of control | 12 % of control | 2 % of control | 36 % of control | 63 % of control | 3 % of control | 81 % of control | 4 % of control | 70 % of control | 99 % of control | residual kinase activity (ABL1; 0.03 µM): 103 % of control; residual kinase activity (ABL2; 0.03 µM): 95 % of control; residual kinase activity (CDC7/DBF4; 0.03 µM): 63 % of control; residual kinase activity (CDK9/CycT1; 0.03 µM): 13 % of control; residual kinase activity (CLK3; 0.03 µM): 94 % of control; residual kinase activity (DMPK; 0.03 µM): 86 % of control; residual kinase activity (LIMK1; 0.03 µM): 10 % of control; residual kinase activity (LYN; 0.03 µM): 105 % of control; residual kinase activity (MAP4K2; 0.03 µM): 22 % of control; residual kinase activity (MKNK1; 0.03 µM): 97 % of control; residual kinase activity (TBK1; 0.03 µM): 114 % of control
2 | c1ccc(CNc2cc(-c3c[nH]c4ncccc34)ccn2)cc1 [meriolin 36] | 80 % of control | 56 % of control | 10 % of control | 1 % of control | 13 % of control | 3 % of control | 9 % of control | 73 % of control | 3 % of control | 48 % of control | 48 % of control | residual kinase activity (ABL1; 3 µM): 26 % of control; residual kinase activity (ABL2; 3 µM): 18 % of control; residual kinase activity (CDC7/DBF4; 3 µM): 2 % of control; residual kinase activity (CDK9/CycT1; 3 µM): 0 % of control; residual kinase activity (CLK3; 3 µM): 1 % of control; residual kinase activity (DMPK; 3 µM): -2 % of control; residual kinase activity (LIMK1; 3 µM): 1 % of control; residual kinase activity (LYN; 3 µM): 25 % of control; residual kinase activity (MAP4K2; 3 µM): 0 % of control; residual kinase activity (MKNK1; 3 µM): 16 % of control; residual kinase activity (TBK1; 3 µM): 10 % of control
